Assay results: PMC3069143 (Analytical chemistry, 2011)
Read-outs that look alike come from different tables or passages of the source.

Experiments:
rodent [1] = conditions: cited from earlier work; for LD50 (in words): rat for styrene and NPYR, mouse for arylamines
Calf thymus ds-DNA [2] = test: ECL genotoxicity array, multi-enzyme; conditions: for ECL turnover rate R (in words): arylamines, HLE or MLE, AcCoA + NADPH
rodent [3] = conditions: cited from earlier work
human hepatic cell lines = conditions: ref Table S2 (SI); cited from earlier work
Calf thymus ds-DNA [4] = tested on: Calf thymus ds-DNA
[5] = tested on: Salmonella typhimurium TA1535; conditions: ref Table S2 (SI); cited from earlier work
[6] = tested on: Salmonella typhimurium TA1538; conditions: ref Table S2 (SI); cited from earlier work
[7] = 1 min enzyme reaction, RLE or HLE

Cc1ccc(N)cc1N [2,4-DAT, 2,4-diaminotoluene]
LD50 (in words) (rodent [1]): small | R relative to 2,6-DAT (Calf thymus ds-DNA [2]; isomer pair 2,4-DAT vs 2,6-DAT): 3 fold

Cc1c(N)cccc1N [2,6-DAT, 2,6-diaminotoluene]
induction of liver tumors (rodent [3]; rat models): fails to induce liver tumors | ECL turnover rate R (in words) (Calf thymus ds-DNA [2]): small but significant

CC(=O)Nc1ccc2c(c1)Cc1ccccc1-2 [2-AAF, N-acetyl-2-aminofluorene]
Comet assay OTM/conc. (human hepatic cell lines): large

Nc1ccc2ccccc2c1 [2-NA, 2-naphthylamine]
ECL turnover rate R (in words) (Calf thymus ds-DNA [2]): did not generate large R

Nc1ccc(-c2ccccc2)cc1 [4-ABP, 4-aminobiphenyl]
ECL turnover rate R (in words) (Calf thymus ds-DNA [2]): largest

CN(CCCC(=O)c1cccnc1)N=O [NNK, 4-(methylnitrosamino)-1-(3-pyridyl)-1-butanone]
ECL produced relative to styrene (Calf thymus ds-DNA [4]; 0.2 mM substrate, either RLE or HLE, NADPH regenerating system): 2–3 times | substrate concentration giving measurable ECL increase (Calf thymus ds-DNA [4]; [7]): 0.2 mM | Ames mutagenicity, TA1535 [5]: only slightly mutagenic | Ames mutagenicity, TA1538 [6]: not mutagenic | Comet assay OTM/conc. (human hepatic cell lines): small

O=NN1CCCC1 [NPYR, N-nitrosopyrrolidine]
substrate concentration giving measurable ECL increase (Calf thymus ds-DNA [4]; [7]): 0.2 mM | Ames mutagenicity, TA1535 [5]: only slightly mutagenic | LD50 (in words) (rodent [1]): small | Ames mutagenicity, TA1538 [6]: not mutagenic

C=Cc1ccccc1 [styrene]
ECL turnover rate R (in words) (Calf thymus ds-DNA [4]): small | substrate concentration giving measurable ECL increase (Calf thymus ds-DNA [4]): 1 mM | LD50 (in words) (rodent [1]): small | Comet assay OTM/conc. (human hepatic cell lines): small

Cc1ccccc1 [toluene]
TD50 (rodent [3]; liver TD50, rodent): 5390 mg/kg body weight per day | LD50 (rodent [1]; rodent, single dose): 2250 mg/kg body weight
